# Test results published in patent publication US20240197760A1, “ACTIVATORS OF INTEGRATED STRESS RESPONSE PATHWAY FOR PROTECTION AGAINST FERROPTOSIS” (Burke Neurological Institute, priority 2021, published 2024).
# “Also recorded” adds a separate entry of the source.
# Columns and labels:
# [1] = test system: ICH mice; assay: Collagenase-induced intracerebral hemorrhage (ICH), tape removal test; assay type: in vivo, mouse; details: 10 mg/Kg i.p. from 24 h after collagenase, every day for 3 weeks; from day 7 onwards (days 7 and 21 vs saline)
# Method: To assess the effect of 2-DG on the Bdnf gene expression, mice were injected with either saline or 2-DG (10 mg/Kg) intraperitoneally for 6 h and then mice were euthanized properly, and hippocampi were dissected out from mice brain. In order to assess functional improvement with 2-DG treatment after ischemic stroke, mice were injected with 2-DG (10 mg/Kg) intraperitoneally 24 h after induction of the stroke and then every day for four weeks. For assessing functional improvement with 2-DG treatment after hemorrhagic stroke, mice were injected with 2-DG (10 mg/Kg) intraperitoneally 24 h after induction of the stroke and then every day for three weeks. ICH was induced as described before (Karuppagounder et al., 2016). Briefly, male C57BL/6 mice (8 to 10 weeks of age; Charles River) were anesthetized with isoflurane (2 to 5%) and placed on a stereotaxic frame. During the procedure, the animal's body temperature was maintained at 37° ° C. with a homeothermic blanket. […] of collagenase (0.075 IU; Sigma) was infused into the right striatum at a flow rate of […] with a nanomite syringe pump (Harvard Apparatus) and a Hamilton syringe. […] The time from which the tape was applied to when the mouse successfully removed it was recorded for each paw. […]
# [2] = test system: AMP/ATP ratio; assay: AMP/ATP ratio from metabolic profiling of mouse primary neurons; assay type: cell-based; details: 10 mM, 8 h
# Method: Targeted Metabolite profiling was performed according to a method described in a previous publication (Chen et al., 2016). Polar metabolites were extracted using cold 80% methanol. The extracts were dried completely with a Speedvac and redissolved in water before it was applied to the hydrophilic interaction chromatography LC-MS. The sample injection order was randomized. Metabolites were measured on a Q Exactive Orbitrap mass spectrometer (Thermo Scientific), which was coupled to a Vanquish UPLC system (Thermo Scientific) via an Ion Max ion source with a HESI II probe (Thermo Scientific). A Sequant ZIC-[…] column (2.1 mm i.d.×150 mm, particle size of 5 μm, Millipore Sigma) was used for separation of metabolites. A 2.1×20 mm guard column with the same packing material was used for protection of the analytical column. Flow rate was set at […]. […] The MS data was processed using XCalibur 4.1 (Thermo Scientific) to extract the metabolite signal intensity for relative quantitation. […] In pathway enrichment analysis, a single P value is calculated for each metabolic pathway. Pathway topology analysis measured the significance of a given experimentally identified metabolite in a pre-defined metabolic pathway.
# [3] = test system: Trib3, Chac1, Bip; assay: Expression of ATF4 target genes and chaperone Bip in mouse primary neurons; assay type: cell-based; details: 6 h, mouse primary neurons
# Method: Total RNA was extracted from primary cortical neurons using NucleoSpin RNA II Kit (Clontech, Catalog number—740955-250). Thereafter, using the Taqman RNA-to-Ct, one step kit (Thermo Fisher Scientific, catalog number—4392938) and following the manufacturer's instructions, […] from each sample was mixed with the Taqman® Gene Expression Master Mix and Taqman® Gene Expression Assays for Creb1 (Catalog number—Mm00501607_m1), Bdnf (Catalog number—Mm04230607_s1), Rbbp4 (Catalog number—Mm00771401_g1), Bip (Catalog number—Mm00517691_m1), Trib3 (Catalog number—Mm00454879_m1), and Chac1 (Catalog number—Mm00509926_m1) with FAM labelled probe and Actin with VIC labelled probe all from Thermo Fisher Scientific on an Applied Biosystems 7500 Fast Real Time PCR System. For assessing gene expression of various specific Bdnf exons in mouse primary neurons, two step qPCR was used. Total RNA from primary cortical neurons was extracted using NucleoSpin RNA II Kit (Clontech, Catalog number—740955-250) and a total of 1.5 μg RNA was used to synthesize cDNA with the SuperScript® III First-Strand Synthesis System (Thermo Fisher Scientific, Catalog number—18080051). Quantitative RT-PCR was then performed using SYBR green (Thermo Fisher Scientific, Catalog number—4309155) on an Applied Biosystems 7500 Fast Real Time PCR System. Quantitative levels for all genes were normalized to the housekeeping gene GAPDH and expressed relative to the relevant control samples as fold change. The sequences of primers used in this part of the study were as follows: Bdnf I forward: […] (SEQ ID NO:9) and Bdnf I reverse: […] (SEQ ID NO:10); Bdnf II forward: […] (SEQ ID NO:11) and Bdnf II reverse: […] (SEQ ID NO:12); Bdnf IV forward #2: […] (SEQ ID NO:13) and Bdnf IV reverse #2: […] (SEQ ID NO:14); Bdnf VI forward: […] (SEQ ID NO:15) and Bdnf VI reverse: […] (SEQ ID NO:16); Bdnf VII forward: […] (SEQ ID NO:17) and Bdnf VII reverse: […] (SEQ ID NO:18) Bdnf IX forward: […] (SEQ ID NO:19) and Bdnf IX reverse: […] (SEQ ID NO:20); Gapdh forward #2: […] (SEQ ID NO:21) and Gapdh reverse #2: […] (SEQ ID NO: 22).
# [4] = test system: ATF4; assay: In vivo bioluminescence imaging of 5′UTR ATF4 luciferase reporter in mouse brain; details: 10 mg/Kg intraperitoneally for 4 h
# [5] = test system: JTC-19 line; details: JTC-19 lung cancer line; cited from earlier work
# [6] = test system: rats; details: dietary supplementation in rats; cited from earlier work
smiles,measurement,setting,value
"OC[C@H]1OC(O)C[C@@H](O)[C@@H]1O (stereo partly drawn) [2-DG, (4R,5S,6R)-6-(hydroxymethyl)oxane-2,4,5-triol]",tape removal test after hemorrhagic stroke,[1],significant improvement; also recorded: significant difference
same,AMP-ATP ratio,[2],increase
same,expression of ATF4 target genes Trib3 and Chac1,[3],enhanced expression; also recorded: Increase
same,ATF4 translation in the mouse brain (luciferase activity),[4],significant increase
same,Bdnf gene expression,[5],inhibit the Bdnf gene expression
same,"physiological effects (insulin level, body temperature, blood pressure, heart rate, plasma glucose level, stress adaptation)",[6],mimic the physiological effects of calorie restriction
